The values that follow come from US20250120967A1, “TYROSINE KINASES INHIBITORS AND USES THEREOF” (GREAT NOVEL THERAPEUTICS BIOTECH & MEDICALS CORPORATION, priority 2023, published 2025).

What all share (assay): Tyrosine kinase inhibition assay
Common to all, as to assay type: biochemical
What all share (settings): single concentration 1.0 μM, read-out: percent inhibition

One assay addresses CSK (Homo sapiens, UniProt P41240). The method in brief: (§1)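 Single-point screen, 1.0 μM compound, 1% DMSO final; ATP at apparent Km. Buffer: 50 mM HEPES pH 7.5, 0.01% BRIJ-35, 10 mM MgCl2, 1 mM EGTA. Z′-LYTE readout, % inhibition; hit = >80%.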
Another assay deals with T1, ITK (Homo sapiens, UniProt Q08881).
T1 sequence (Q08881 1-620): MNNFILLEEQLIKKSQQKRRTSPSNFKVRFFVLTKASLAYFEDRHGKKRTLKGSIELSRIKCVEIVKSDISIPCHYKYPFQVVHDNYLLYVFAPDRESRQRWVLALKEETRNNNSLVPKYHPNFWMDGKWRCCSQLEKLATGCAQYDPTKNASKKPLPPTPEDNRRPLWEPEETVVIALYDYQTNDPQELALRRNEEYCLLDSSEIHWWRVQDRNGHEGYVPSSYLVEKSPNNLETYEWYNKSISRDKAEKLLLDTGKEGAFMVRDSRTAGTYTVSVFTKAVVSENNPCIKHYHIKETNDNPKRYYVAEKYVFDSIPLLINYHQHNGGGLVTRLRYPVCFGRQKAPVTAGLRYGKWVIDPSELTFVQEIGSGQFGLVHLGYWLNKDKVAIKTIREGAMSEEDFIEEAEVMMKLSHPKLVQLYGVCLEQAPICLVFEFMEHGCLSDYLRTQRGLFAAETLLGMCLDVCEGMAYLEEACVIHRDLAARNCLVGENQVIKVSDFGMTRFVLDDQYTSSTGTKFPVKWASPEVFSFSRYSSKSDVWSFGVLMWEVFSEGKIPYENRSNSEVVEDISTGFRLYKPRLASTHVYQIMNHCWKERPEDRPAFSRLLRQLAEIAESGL
The gist of the method: as §1

The next assay concerns the target JAK2 (Homo sapiens, UniProt O60674). The gist of the method:
as §1

Another assay has as its target T2, EPHA3 (Homo sapiens, UniProt P29320).
T2 sequence (P29320 21-983): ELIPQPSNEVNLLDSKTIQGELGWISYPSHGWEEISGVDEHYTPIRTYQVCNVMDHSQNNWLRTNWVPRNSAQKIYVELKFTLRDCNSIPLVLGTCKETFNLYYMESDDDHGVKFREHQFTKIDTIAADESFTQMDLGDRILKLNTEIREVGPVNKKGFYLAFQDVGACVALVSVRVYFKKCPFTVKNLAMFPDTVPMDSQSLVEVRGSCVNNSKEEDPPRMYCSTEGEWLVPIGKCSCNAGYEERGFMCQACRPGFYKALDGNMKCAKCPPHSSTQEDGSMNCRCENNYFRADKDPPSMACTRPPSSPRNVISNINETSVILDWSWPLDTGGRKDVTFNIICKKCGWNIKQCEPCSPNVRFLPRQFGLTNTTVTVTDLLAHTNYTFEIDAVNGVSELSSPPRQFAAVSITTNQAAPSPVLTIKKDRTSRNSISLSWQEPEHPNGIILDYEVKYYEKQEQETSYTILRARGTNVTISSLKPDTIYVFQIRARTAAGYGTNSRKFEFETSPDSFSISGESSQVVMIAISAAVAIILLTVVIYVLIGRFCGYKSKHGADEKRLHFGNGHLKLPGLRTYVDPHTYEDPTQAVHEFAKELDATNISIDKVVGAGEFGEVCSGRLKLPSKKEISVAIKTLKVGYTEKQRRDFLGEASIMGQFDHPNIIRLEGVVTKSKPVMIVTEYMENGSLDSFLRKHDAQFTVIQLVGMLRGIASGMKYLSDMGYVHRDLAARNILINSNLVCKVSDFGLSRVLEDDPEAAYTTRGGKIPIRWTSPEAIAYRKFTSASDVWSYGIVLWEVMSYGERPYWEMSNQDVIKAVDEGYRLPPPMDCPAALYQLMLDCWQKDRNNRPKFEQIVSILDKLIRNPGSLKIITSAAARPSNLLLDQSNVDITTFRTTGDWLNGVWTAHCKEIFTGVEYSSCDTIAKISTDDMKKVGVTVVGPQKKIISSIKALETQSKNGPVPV
The gist of the method:
as §1

A further assay concerns the target SYK (Homo sapiens, UniProt P43405). The gist of the method:
as §1

The next assay addresses SRMS (Srm) (Homo sapiens, UniProt Q9H3Y6). The gist of the method:
as §1

The target in a further assay is FGFR3 (Homo sapiens, UniProt P22607). The method in brief: as §1
FGFR3, sequence (P22607 23-806): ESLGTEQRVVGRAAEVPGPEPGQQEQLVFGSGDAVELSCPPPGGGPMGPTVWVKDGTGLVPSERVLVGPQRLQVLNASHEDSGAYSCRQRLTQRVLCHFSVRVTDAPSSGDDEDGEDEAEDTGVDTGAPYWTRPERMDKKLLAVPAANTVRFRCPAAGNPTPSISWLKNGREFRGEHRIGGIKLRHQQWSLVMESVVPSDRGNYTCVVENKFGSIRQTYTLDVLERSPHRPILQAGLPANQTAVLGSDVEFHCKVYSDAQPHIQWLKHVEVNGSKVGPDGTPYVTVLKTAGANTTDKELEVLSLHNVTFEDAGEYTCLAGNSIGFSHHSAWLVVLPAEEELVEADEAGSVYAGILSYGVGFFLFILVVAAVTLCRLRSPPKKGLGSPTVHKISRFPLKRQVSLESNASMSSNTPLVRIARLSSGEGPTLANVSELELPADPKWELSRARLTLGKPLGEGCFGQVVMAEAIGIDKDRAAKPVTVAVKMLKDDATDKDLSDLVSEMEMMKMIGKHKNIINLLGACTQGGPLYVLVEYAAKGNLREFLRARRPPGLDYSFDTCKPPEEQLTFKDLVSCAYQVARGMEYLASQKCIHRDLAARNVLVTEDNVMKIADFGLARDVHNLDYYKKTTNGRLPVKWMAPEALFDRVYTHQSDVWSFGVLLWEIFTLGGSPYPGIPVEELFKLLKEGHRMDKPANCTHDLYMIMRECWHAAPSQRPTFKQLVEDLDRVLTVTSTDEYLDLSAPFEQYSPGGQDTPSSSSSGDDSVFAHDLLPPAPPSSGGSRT

JAK2, sequence (O60674 whole entry): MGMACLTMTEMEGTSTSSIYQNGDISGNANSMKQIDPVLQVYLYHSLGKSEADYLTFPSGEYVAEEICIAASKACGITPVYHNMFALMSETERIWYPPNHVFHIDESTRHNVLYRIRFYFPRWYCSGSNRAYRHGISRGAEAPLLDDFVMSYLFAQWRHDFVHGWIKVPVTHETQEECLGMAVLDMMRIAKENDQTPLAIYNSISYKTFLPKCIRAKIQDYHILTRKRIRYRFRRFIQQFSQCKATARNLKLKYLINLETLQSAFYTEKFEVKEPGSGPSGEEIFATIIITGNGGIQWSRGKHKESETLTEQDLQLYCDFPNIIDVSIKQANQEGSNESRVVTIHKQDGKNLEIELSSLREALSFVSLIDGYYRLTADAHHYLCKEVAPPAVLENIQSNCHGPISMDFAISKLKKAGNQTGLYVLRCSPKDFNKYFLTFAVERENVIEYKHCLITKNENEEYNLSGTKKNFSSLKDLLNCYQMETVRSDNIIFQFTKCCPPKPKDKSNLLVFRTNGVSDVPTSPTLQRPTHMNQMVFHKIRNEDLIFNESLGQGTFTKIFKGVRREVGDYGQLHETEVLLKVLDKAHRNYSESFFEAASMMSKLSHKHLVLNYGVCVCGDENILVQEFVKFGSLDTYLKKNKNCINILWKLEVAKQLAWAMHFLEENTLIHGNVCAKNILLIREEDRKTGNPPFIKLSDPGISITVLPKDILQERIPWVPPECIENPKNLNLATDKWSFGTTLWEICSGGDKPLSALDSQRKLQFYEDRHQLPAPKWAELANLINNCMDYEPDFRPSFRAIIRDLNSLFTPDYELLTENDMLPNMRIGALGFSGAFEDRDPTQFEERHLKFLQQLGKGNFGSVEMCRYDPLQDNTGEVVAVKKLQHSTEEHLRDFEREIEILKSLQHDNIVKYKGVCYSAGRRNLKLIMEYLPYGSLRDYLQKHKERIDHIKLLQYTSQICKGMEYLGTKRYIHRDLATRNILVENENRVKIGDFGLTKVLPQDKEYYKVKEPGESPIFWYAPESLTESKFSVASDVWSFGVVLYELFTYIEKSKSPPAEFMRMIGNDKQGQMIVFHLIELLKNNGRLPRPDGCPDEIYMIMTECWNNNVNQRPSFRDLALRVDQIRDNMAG
CSK, sequence (P41240 whole entry): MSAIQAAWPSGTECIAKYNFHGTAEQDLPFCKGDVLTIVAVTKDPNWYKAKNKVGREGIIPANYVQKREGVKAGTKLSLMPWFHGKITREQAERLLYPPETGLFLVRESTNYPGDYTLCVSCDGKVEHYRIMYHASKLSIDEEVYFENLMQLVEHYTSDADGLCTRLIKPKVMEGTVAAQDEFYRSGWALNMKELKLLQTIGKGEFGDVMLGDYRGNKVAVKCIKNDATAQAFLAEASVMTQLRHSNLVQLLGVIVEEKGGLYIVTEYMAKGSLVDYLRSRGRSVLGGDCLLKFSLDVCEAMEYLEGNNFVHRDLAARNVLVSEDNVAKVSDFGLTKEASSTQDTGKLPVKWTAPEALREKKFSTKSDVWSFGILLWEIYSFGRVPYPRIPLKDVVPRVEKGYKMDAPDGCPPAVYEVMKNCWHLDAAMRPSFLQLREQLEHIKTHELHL
SRMS (Srm), sequence (Q9H3Y6 whole entry): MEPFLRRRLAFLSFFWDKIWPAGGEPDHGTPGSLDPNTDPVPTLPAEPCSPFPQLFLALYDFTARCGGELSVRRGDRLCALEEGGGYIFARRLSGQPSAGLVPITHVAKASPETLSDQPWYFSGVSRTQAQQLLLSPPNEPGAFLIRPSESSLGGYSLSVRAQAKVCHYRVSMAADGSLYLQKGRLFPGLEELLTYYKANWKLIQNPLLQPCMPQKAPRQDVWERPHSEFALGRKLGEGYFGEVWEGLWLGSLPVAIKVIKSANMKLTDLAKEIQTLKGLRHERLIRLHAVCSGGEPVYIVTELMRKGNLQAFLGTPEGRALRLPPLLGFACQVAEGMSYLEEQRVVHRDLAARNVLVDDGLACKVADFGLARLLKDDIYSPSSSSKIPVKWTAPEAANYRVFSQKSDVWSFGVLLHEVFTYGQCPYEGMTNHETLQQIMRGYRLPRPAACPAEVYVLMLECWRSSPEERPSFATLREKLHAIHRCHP

`COc1cc2nccc(Oc3ccc(NC(=O)C4(C(=O)Nc5ccc(F)cc5)CC4)cc3)c2cc1OC` [Cabozantinib, reference compound]: the inhibition at 1 µM on CSK amounted to 49%; at ITK it was 15%; on JAK2 it was 24%; on EPHA3, 100%; on SYK it was 16%; at SRMS (Srm), 96%. On FGFR3, the inhibition at 1 µM amounted to 16%.

With `COc1cc2nccc(Oc3ccc(NC(=O)C4(NC(=O)c5ccc(F)cc5)CC4)cc3F)c2cc1OC` [Cbo-02, N-(1-((4-((6,7-diMethoxyquinolin-4-yl)oxy)-3-fluorophenyl)carbamoyl)cyclopropyl)-4-fluorobenzamide], the inhibition at 1 µM at CSK is 87%; on ITK it was 8%; on JAK2 it was 6%; on EPHA3 it was -3%; on SYK, 14%; on SRMS (Srm), 12%. At FGFR3, the inhibition at 1 µM came out at 4%.

For `COc1cc2nccc(Oc3ccc(NC(=O)C4(NC(=O)c5ccc(F)cc5)CC4)cc3F)c2cc1Oc1ccc(N)cc1F` [Cbo-10], the inhibition at 1 µM is 97% on CSK; 25% at ITK; -1% at JAK2; 14% on EPHA3; 24% at SYK; 74% on SRMS (Srm). Further, the inhibition at 1 µM on FGFR3 was 19%.

In the case of `COc1cc2nccc(Oc3ccc(NC(=O)C4(NC(=O)c5ccc(F)cc5)CC4)cc3F)c2cc1Oc1c(F)cc(N)cc1F` [Cbo-14], the inhibition at 1 µM was 97% on CSK; 28% at ITK; 1% at JAK2; 24% at EPHA3; 27% at SYK; 84% on SRMS (Srm). Further, on FGFR3, the inhibition at 1 µM was 19%.

Regarding `COc1cc2nccc(Oc3ccc(NC(=O)C4(C(=O)Nc5ccc(F)cc5)CC4)cc3F)c2cc1Oc1ccc(N)cc1F` [Cbo-23], the inhibition at 1 µM was found to be 66% at CSK; 54% at ITK; 58% at JAK2; 97% at EPHA3; 15% at SYK; 99% at SRMS (Srm). Further, the inhibition at 1 µM at FGFR3 stood at 13%.

A word on the inhibition: it is the drop in the measured response relative to a control, in per cent.
